Reference: publication PMC5447021, “TNF Lectin-Like Domain Restores Epithelial Sodium Channel Function in Frameshift Mutants Associated with Pseudohypoaldosteronism Type 1B” (Frontiers in Immunology, 2017)
“Also recorded” adds a separate entry of the source.

Legend:
Format in all cases: cell-based, human
βγ-ENaC = assay: Whole-cell patch clamp, WT βγ-ENaC; details: HEK-293, 200 nM solnatide, n = 3
Method: HEK-293 cells were transfected 1 day after cell seeding using X-tremeGENE HP DNA transfection reagent (Roche Diagnostics, Mannheim, Germany) according to the manufacturer’s protocol. A set of WT or mutant αβγ- or δβγ-hENaC, or α-, β-, γ-, or δ-hENaC alone was used, and the ratio of DNA to transfection reagent was 1:3. The expression was highest 48–72 h after transfection.
Electrophysiological experiments were performed as described in detail by Shabbir et al. ([16]). […] Currents were recorded with the patch clamp method in the whole-cell mode. The chamber contained 1 ml of the bath solution of the following composition (in mM): 145 NaCl, 2.7 KCl, 1.8 CaCl2, 2 MgCl2, 5.5 glucose, and 10 HEPES, adjusted to pH 7.4 with 1 M NaOH solution. Micropipettes were pulled from thin-walled borosilicate glass capillaries (Harvard Apparatus, Holliston, MA, USA) with a DMZ Zeitz Puller to obtain electrode resistances ranging from 2 to 5 MΩ. The pipette solution contained (in millimolars): 135 potassium methane sulfonate, 10 KCl, 6 NaCl, 1 Mg2ATP, 2 Na3ATP, 10 HEPES, and 0.5 EGTA, adjusted to pH 7.2 with 1 M KOH solution. Chemicals for pipette and bathing solutions were supplied by Sigma-Aldrich (Vienna, Austria). Electrophysiological measurements were carried out with an Axopatch 200B patch clamp amplifier (Axon Instruments, CA, USA). […]

αF435fs = assay: Membrane abundance of αF435fs
Method: (§1) Cell surface biotinylation was performed as previously described ([26]). In brief, A549 cells or transiently transfected HEK-293 cells were grown in 10 cm dishes in 37°C, 5% CO2 incubator in DMEM medium supplemented with 5% FBS. […] Medium was aspirated, and then cells were washed twice with 10 ml ice-cold phosphate-buffered saline (PBS), covered with 2.5 mg EZ-Link Sulfo-NHS-SS-Biotin (Thermo Scientific, Rockford, USA), dissolved in 10 ml ice-cold PBS, and incubated at 4°C with gentle agitation for 30 min. Fifty milliliters of quenching solution were added to cells; then cells were scraped in solution and transferred to fresh 50 ml tube. Cell suspension was centrifuged at 500 × g for 3 min. Supernatant was discarded, and 5 ml of Tris-buffered saline (TBS) was added to the cell pellet. The cell pellet was resuspended and centrifuged at 500 × g for 3 min. Supernatant was discarded and cell pellet was resuspended in lysis buffer containing protease inhibitor cocktail (10 µM pepstatin A, 10 µM phenylmethylsulfonyl fluoride, and 10 µM leupeptin) and transferred to fresh 1.5 ml centrifuge tube. Cell pellet was then homogenized on ice by ultrasonication using 1 s bursts and incubated on ice for at least 30 min. Intact cells and nuclei were pelleted by centrifugation at 10,000 × g for 2 min under cooling conditions. Pellet was then discarded and supernatant was transferred to fresh tube, incubated overnight with 0.5 ml NeutrAvidin Agarose under gentle rotation at 4°C and centrifuged at 500 × g for 5 min under cooling conditions. Supernatant was then discarded and the pellet washed twice with 200 µl lysis buffer. The biotinylated proteins were eluted with 100 µl sodium dodecyl sulfate (SDS) sample buffer (62.5 mM Tris, pH 6.8, 1% SDS, 10% glycerine, 50 mM dithiothreitol) containing 10 µM E64 at 65°C for 10 min. Sample was then centrifuged at 500 × g for 2 min. Pellet was discarded and supernatant subjected to protein electrophoresis and immunoblotting. […] Exposed films were scanned and quantified using ImageJ (NIH, MD, USA). […]

[1] = system: WT or mutant frameshift α-ENaC; assay: Membrane abundance of α-ENaC, WT or mutant frameshift (overall); details: HEK-293, WT or mutant frameshift α-ENaC
Method: as §1, with “conditions.” for “conditions. Pellet was then discarded and supernatant was transferred to fresh tube, incubated overnight with 0.5 ml NeutrAvidin Agarose under gentle rotation at 4°C and centrifuged at 500 × g for 5 min under cooling conditions. Supernatant was then discarded and the pellet washed twice with 200 µl lysis buffer. The biotinylated proteins were eluted with 100 µl sodium dodecyl sulfate (SDS) sample buffer (62.5 mM Tris, pH 6.8, 1% SDS, 10% glycerine, 50 mM dithiothreitol) containing 10 µM E64 at 65°C for 10 min. Sample was then centrifuged at 500 × g for 2 min. Pellet was discarded and supernatant subjected to protein electrophoresis and immunoblotting.”

C[C@@H]1NC(=O)CNC(=O)[C@H](CCC(=O)O)NC(=O)[C@@H]2CCCN2C(=O)[C@H]([C@@H](C)O)NC(=O)[C@H](CCC(=O)O)NC(=O)[C@H](CCCNC(=N)N)NC(=O)[C@H](CCC(N)=O)NC(=O)CNC(=O)[C@@H](N)CSSC[C@@H](C(=O)O)NC(=O)[C@H](Cc2ccc(O)cc2)NC(=O)[C@H](Cc2c[nH]c3ccccc23)NC(=O)[C@@H]2CCCN2C(=O)[C@H](CCCCN)NC(=O)[C@H](C)NC(=O)[C@H](CCC(=O)O)NC1=O [solnatide, L-cysteine, L-cysteinylglycyl-L-glutaminyl-L-arginyl-L-α-glutamyl-L-threonyl-L-prolyl-L-α-glutamylglycyl-L-alanyl-L-α-glutamyl-L-alanyl-L-lysyl-L-prolyl-L-tryptophyl-L-tyrosyl-, cyclic (1→17)-disulfide]
Effect of solnatide on current (words) (βγ-ENaC): small current increase in WT βγ-ENaC; also recorded: can activate βγ-ENaC marginally | Membrane abundance, solnatide 5 min (αF435fs; 200 nM, 5 min, relative to WT control (=1), own control 2.37 ± 0.15, p < 0.001 vs control): 3.71 ± 0.20 | Membrane abundance, solnatide 10 min (αF435fs; 200 nM, 10 min, relative to WT control (=1), own control 2.37 ± 0.15, p < 0.01 vs control): 2.82 ± 0.17 | Membrane abundance after solnatide (αF435fs; HEK-293): the membrane abundance increasing even further following exposure to solnatide | Membrane abundance of α-ENaC [1]: transient and significant increase in membrane abundance of α-ENaC
